Results from the METLIN SMRT retention time set (Domingo-Almenara et al. 2019).

Assay: gradient 5% acetonitrile 3 min, to 50% in 2 min, to 85% in 15 min, held 3 min, 100 µL/min
Details: column: Zorbax Extend-C18 2.1 x 50 mm; eluents: water / acetonitrile, 0.1% formic acid
In short: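 Pure standards were run in mixtures of ~100 molecules by HPLC coupled to a quadrupole time-of-flight mass spectrometer. The column was a Zorbax Extend-C18 (2.1 × 50 mm, 1.8 μm) at 100 μL/min, with water and acetonitrile each containing 0.1% formic acid, in positive and negative ionization mode. Dead and dwell volumes were 40 μL and 900 μL. Retention time was taken from computationally picked adduct peaks, each manually inspected, with data collected over 3 months.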

Row | Compound | RP-LC retention time [s]
1 | CCc1nc(OCC(=O)NCCCOC)c2c(-c3ccc(F)cc3)noc2n1 | 890
2 | O=S(=O)(NCc1ccccc1Cl)c1ccc2c(c1)-c1oncc1CO2 | 907
3 | CCn1cc(-c2nc(C(=O)N3CCN(c4ccc(OC)cc4)CC3)cs2)c2cccnc21 | 887
4 | CN(C)S(=O)(=O)c1ccc(-c2nnc(NC(=O)c3ccc4ncsc4c3)o2)cc1 | 669
5 | Cc1ccc(C2Cn3nnc(-c4nc(-c5cccc(F)c5)no4)c3CO2)c(C)c1 (centres undefined) | 1300
6 | Cc1ccc(Nc2nc(NCCO)c3cnn(C)c3n2)cc1C | 610
7 | O=C(NCc1ccccc1)C1CC(=O)N(c2ccc3c(c2)CCN3C(=O)C2CCC2)C1 (centres undefined) | 769
8 | Cc1cccc(C(=O)Nc2ccc3c(c2)Sc2ncccc2C(=O)N3C(C)C)c1 | 898
9 | COCCCNC(=O)C1CCN(c2cnc3nc(C)c(C)nc3c2)CC1 | 574
10 | CCOC(=O)c1cnc2nc(C)ccc2c1Nc1ccc(F)c(Cl)c1 | 764
11 | C=CCNc1ncnc2ccc(Br)cc12 | 671
12 | COc1cccc(CNC(=O)c2nnc(-c3ccc(S(=O)(=O)N4CCOCC4)cc3)o2)c1 | 822
13 | O=C(NC1CC1)C1CCN(c2nc3ccc(-c4ccccc4)nc3s2)CC1 | 865
14 | CCn1nc(C(=O)Nc2nnc(-c3cc4ccccc4o3)o2)cc1C | 770
15 | Oc1cccc(-c2nc3cnc(Br)cn3c2Nc2cccc(C(F)(F)F)c2)c1 | 902
16 | COc1ccc(C2CC(=O)N(c3ccc(F)cc3F)C(=O)C2)cc1OC | 870
17 | O=C(C1CCCO1)N1CCC(OCc2nc(C3CC3)no2)CC1 (centres undefined) | 635
18 | Cc1ccc(-c2noc(CN3N=NC4C(=O)N(c5ccc(C)c(Cl)c5)C(=O)C43)n2)cc1 (centres undefined) | 1100
19 | COc1ccccc1-c1nnc2sc(-c3cc(CC(C)C)[nH]n3)nn12 | 891
20 | CCOC(=O)C1=C(CN2CC=C(c3ccccc3)CC2)NC(=O)NC1c1cccc(OC)c1OC (centres undefined) | 704

Row | Compound | RP-LC retention time [s]
21 | Cc1ccnc(SCC(=O)Nc2nc(-c3ccccc3)cs2)n1 | 917
22 | CCn1cc(C)c(C(=O)O)c1CC(=O)NCc1cccs1 | 733
23 | COc1ccc(Cl)cc1NC(=O)N1CCC2(CC1)N=C(c1ccccc1)C(=O)N2 | 909
24 | COC(=O)c1ccc(Cl)cc1NC(=O)N1CCN(Cc2nc3cc(Cl)ccc3o2)CC1 | 1150
25 | CCOC(=O)c1ccc(Nc2nc(C(=O)OCC)nc3ccccc23)cc1 | 896
26 | Cn1c(=O)c2ccn(CC(=O)Nc3ccc(F)cc3Cl)c2n(C)c1=O | 695
27 | COc1ccc(-c2noc(C3CC(=O)N(c4cc(C)cc(C)c4)C3)n2)cc1OC (centres undefined) | 922
28 | CCC(=O)N1CCC(Cc2noc(C3CC3)n2)C1 (centres undefined) | 671
29 | O=c1n(Cc2ccc3c(c2)OCO3)nc2c(-c3nc(-c4ccccc4)no3)cccn12 | 944
30 | CN(C)CC1(O)CCC2(CCN(C(=O)C3CCCC3)CC2)CC1 | 591
31 | COc1cccc(-c2c(C(=O)O)nnn2-c2ccc3c(c2)OCO3)c1 | 743
32 | COc1cccc(-c2cn3ccn(-c4ccc(F)c(F)c4)c(=O)c3n2)c1 | 844
33 | CNC(=O)C1CCCN(c2nc3ncn(CC(=O)NCCc4ccc(Cl)cc4)c(=O)c3s2)C1 (centres undefined) | 681
34 | Cc1ccc2c(Nc3ccc(C)c(C)c3)c(C(=O)N3CCCCC3C)cnc2n1 (centres undefined) | 672
35 | O=C(CN1C(=O)NC2(CCCCC2)C1=O)NCc1ccccc1F | 733
36 | CNC(=O)c1cc(NC)nc2c(Cl)cccc12 | 568
37 | CC1CCN(C(=O)C2=CN(c3ccc4c(c3)OCCO4)c3ccccc3S2(=O)=O)CC1 | 899
38 | CC1(C)CC2CC(C)(CN2c2nc(-c3ccccc3)nc3ccccc23)C1 (centres undefined) | 948
39 | Cc1cc(Br)ccc1NC(=O)c1cc2n(n1)CCCC2 | 993
40 | Cc1ccc(NC(=O)C2CCN(S(C)(=O)=O)c3ccccc3O2)cc1C (centres undefined) | 945

Row | Compound | RP-LC retention time [s]
41 | O=C(NCCCO)C(=O)NCCc1ccc(Cl)cc1 | 698
42 | CC(C)n1c(CCNC(=O)c2ccccc2Cl)nc2cccnc21 | 651
43 | O=S(=O)(NCc1ccc(Br)cc1)c1ccc2c(c1)-c1oncc1CO2 | 958
44 | O=S(=O)(NCCC1=CCCCC1)c1cccc(-c2nc(-c3ccccc3)no2)c1 | 1360
45 | CCc1ccccc1NC(=O)NCC1CCOCC1 | 705
46 | O=C(c1ccco1)N1CCN(S(=O)(=O)CCCOc2ccc3c(c2)OCO3)CC1 | 764
47 | CCCNC(=O)CCc1nc2ccccc2n(CC(=O)NCc2ccc(F)cc2)c1=O | 750
48 | CC(C)CCNC(=O)c1ccc2c(c1)N(C)C(=O)C1CCCCN21 (centres undefined) | 885
49 | CCCOC(=O)C1=C(C)NC2=C(C(=O)CCC2)C1c1ccc(OC)c(OC)c1OC (centres undefined) | 791
50 | Cc1nc2c(NC(=O)COc3ccccc3C)cccn2n1 | 916
51 | CCCCNC(=O)C1Cc2ccccc2CN1S(=O)(=O)c1ccccc1 (centres undefined) | 960
52 | COCCNC(=O)C1CCCN(C(=O)Nc2ccc(NC(=O)Nc3ccccc3)cc2)C1 (centres undefined) | 676
53 | CCC(=O)N1CCC2(CC1)NC(=O)c1ccccc1O2 | 649
54 | O=C(N1CCC2(CC1)CC(CCOc1ccncc1)CCO2)C1(c2ccccc2)CC1 (centres undefined) | 664
55 | Cn1nc2n(c1=O)CCN(C(=O)Cc1cccs1)CC2 | 610
56 | COc1ccc(-c2noc(C3CC(=O)N(c4ccccc4)C3)n2)c(OC)c1 (centres undefined) | 803
57 | O=C(Nc1nc(-c2nc3ccccc3s2)cs1)c1ccc([N+](=O)[O-])s1 | 1020
58 | CCOc1ccccc1NC(=O)c1cncc(NS(=O)(=O)c2ccc(OC)cc2)c1 | 798
59 | O=S(=O)(c1ccc(OC(F)(F)F)cc1)N1CCC(c2nnc(C(F)(F)F)o2)CC1 | 1000
60 | COc1ccccc1C(=O)Oc1ccc(N(C)C2=NS(=O)(=O)c3ccccc32)cc1 | 910

The remaining lines, values ahead:

Row | RP-LC retention time [s] | Compound
61 | 1010 | COc1ccc(OC)c(NC(=O)CSc2nccc(N3CCN(c4cc(C)ccc4C)CC3)n2)c1
62 | 651 | COc1ccc(-c2cc(C)no2)cc1S(=O)(=O)N1CCN(c2ccccn2)CC1
63 | 563 | Cc1cc(N2CCN(C(=O)c3ccc(Br)cc3)CC2)nc2nnc(C)n12
64 | 569 | CCCCN1CCN(C(=O)C2CCCN(c3cnc4nccnc4c3)C2)CC1 (centres undefined)
65 | 577 | O=C(NCc1cccnc1)C1CCCN(c2ncnc3c2nc2n3CCCCC2)C1 (centres undefined)
66 | 683 | CCN(CC)c1nc2ccsc2c(=O)n1CCC(=O)N1CCN(c2ccccn2)CC1
67 | 749 | CCc1nc(-c2csc(S(=O)(=O)N3CCC(C(=O)Nc4cc(C)ccn4)CC3)c2)no1
68 | 888 | COc1ccc(N2CCN(c3nccc4ccc(C(=O)NCCC5=CCCCC5)cc34)CC2)cc1
69 | 599 | O=C(C1CCN(c2cnc(N3CCCCC3)nc2)CC1)N1CCOCC1
70 | 765 | COc1ccccc1N1CCN(C(=O)C2CCN(c3ncnc4c3oc3ccccc34)CC2)CC1
71 | 785 | CC(C)c1ccc(S(=O)(=O)N2CCc3nn(C)c(=O)n3CC2)cc1
72 | 998 | Cc1ccc2[nH]cc(CCNC(=O)c3ccc(N4CCCC4)c(S(=O)(=O)N4CCCC4)c3)c2c1
73 | 986 | Cc1cc(C)cc(Oc2cc(N3CCC(C(=O)NCCc4ccccc4)CC3)ncn2)c1
74 | 659 | CC(=O)Nc1nsc(N2CCC(C(=O)NCc3ccccc3F)CC2)n1
75 | 761 | CCCS(=O)(=O)N1CCC(Oc2nccnc2N2CCOCC2)C1 (centres undefined)
76 | 1180 | Cc1ccccc1-c1nc(C2CCN(S(=O)(=O)c3ccc(F)cc3)CC2)no1
77 | 831 | CCc1ccc(S(=O)(=O)N2CCC3(CC2)NCCN=C3NCc2ccc(F)c(Cl)c2)cc1
78 | 856 | O=c1n(Cc2cccc(F)c2)nc2ccc(S(=O)(=O)N3CCCC3)cn12
79 | 1010 | CCn1c(=O)c(N2CCC(NC(=O)Nc3ccccc3Cl)CC2)nc2ccccc21
80 | 735 | Cc1cnc(C(=O)N[C@@H]2CCC[C@@H]2C(=O)NC2CCCCCC2)cn1
81 | 1040 | O=c1n(Cc2cccc(Cl)c2)nc2ccc(S(=O)(=O)N3CCCCCC3)cn12
82 | 706 | CCC1CCCCN1C(=O)c1cnc2nc(C)ccc2c1Nc1ccc(C)cc1C (centres undefined)
83 | 625 | CCC(=O)Nc1ccc(CCc2nc3ccc(C(=O)NC4CCCC4)cc3[nH]2)cc1
84 | 686 | Cc1cccc(Sc2nccnc2N2CCCC(C(=O)NCCN3CCOCC3)C2)c1 (centres undefined)
85 | 862 | CCCN1C(=O)Cc2ccccc2C1C(=O)NC1CCCCCC1 (centres undefined)
86 | 882 | COc1ccccc1N1CCN(Cc2nc(-c3ccc(N4CCC(C)CC4)nc3)no2)CC1
87 | 821 | Cc1cc(N2CCN(S(=O)(=O)c3cc(F)ccc3F)CC2)nc(NC2CCCCC2)n1
88 | 851 | COc1cccc(Cn2nc3n(C)c(=O)c4ccc(C(=O)NC5CCCC5)cc4n3c2=O)c1
89 | 647 | Cc1cc(C)c(S(=O)(=O)N2CCCC(C(=O)NCc3ccncc3)C2)c(C)c1 (centres undefined)
